Values quoted from earlier work as cited in patent US20260335339A1, “COMPOSITIONS FOR DERMAL/TRANSDERMAL DELIVERY AND COSMETIC USE” (YISSUM RESEARCH DEVELOPMENT COMPANY OF THE HEBREW …, priority 2022, published 2026).

Conditions: lipophilic fluorescent molecule

O=C1OC2(c3ccc(O)cc3Oc3cc(O)ccc32)c2ccc(N=C=S)cc21 [FITC, fluorescein isothiocyanate]
log p: 4.3
